Assay results taken from the supplement of paper PMC10307832.

What was measured:
Assay in all cases: relative viability (nuclei count vs DMSO), 5 days (fraction); higher = more cells survive
AZD5582 + OSI-027 = compound: C[C@@H](C(=O)N[C@@H](C1CCCCC1)C(=O)N2CCC[C@H]2C(=O)N[C@@H]3[C@@H](CC4=CC=CC=C34)OCC#CC#CCO[C@@H]5CC6=CC=CC=C6[C@@H]5NC(=O)[C@@H]7CCCN7C(=O)[C@H](C8CCCCC8)NC(=O)[C@H](C)NC)NC [AZD5582] + COc1cccc2cc(-c3nc([C@H]4CC[C@H](C(=O)O)CC4)n4ncnc(N)c34)[nH]c12 [OSI-027] (partner 0.5 µM)
Summary of the method: (§1)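 Relative viability was taken as the ratio of nuclei in treated wells to nuclei in vehicle wells. Lung cancer cell lines in 1536-well plates received compounds by pin tool one day after seeding, either one drug alone or a fixed anchor-drug dose plus five library-drug doses (not always all listed) in √10 steps. Nuclei were counted on 4× images after 5 days of treatment, and values are medians of duplicate plates.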

AZD5582 + Tozasertib = compound: C[C@@H](C(=O)N[C@@H](C1CCCCC1)C(=O)N2CCC[C@H]2C(=O)N[C@@H]3[C@@H](CC4=CC=CC=C34)OCC#CC#CCO[C@@H]5CC6=CC=CC=C6[C@@H]5NC(=O)[C@@H]7CCCN7C(=O)[C@H](C8CCCCC8)NC(=O)[C@H](C)NC)NC [AZD5582] + Cc1cc(Nc2cc(N3CCN(C)CC3)nc(Sc3ccc(NC(=O)C4CC4)cc3)n2)n[nH]1 [Tozasertib] (partner 0.1 µM)
Summary of the method: as §1

AZD5582 + AZD7762 = compound: C[C@@H](C(=O)N[C@@H](C1CCCCC1)C(=O)N2CCC[C@H]2C(=O)N[C@@H]3[C@@H](CC4=CC=CC=C34)OCC#CC#CCO[C@@H]5CC6=CC=CC=C6[C@@H]5NC(=O)[C@@H]7CCCN7C(=O)[C@H](C8CCCCC8)NC(=O)[C@H](C)NC)NC [AZD5582] + NC(=O)Nc1cc(-c2cccc(F)c2)sc1C(=O)N[C@H]1CCCNC1 [AZD7762] (partner 0.2 µM)
Summary of the method: as §1

Temozolomide + Alpelisib = compound: Cn1nnc2c(C(N)=O)ncn2c1=O [Temozolomide] + Cc1nc(NC(=O)N2CCC[C@H]2C(N)=O)sc1-c1ccnc(C(C)(C)C(F)(F)F)c1 [Alpelisib] (partner 2 µM)
Summary of the method: as §1

Cell Line	relative viability (AZD5582 + OSI-027; first compound 0.001581 µM)	relative viability (AZD5582 + OSI-027; first compound 0.005 µM)	relative viability (AZD5582 + OSI-027; first compound 0.01581 µM)	relative viability (AZD5582 + OSI-027; first compound 0.05 µM)	relative viability (AZD5582 + Tozasertib; first compound 0.001581 µM)	relative viability (AZD5582 + Tozasertib; first compound 0.005 µM)	relative viability (AZD5582 + Tozasertib; first compound 0.01581 µM)	relative viability (AZD5582 + Tozasertib; first compound 0.05 µM)	relative viability (AZD5582 + AZD7762; first compound 0.001581 µM)	relative viability (AZD5582 + AZD7762; first compound 0.005 µM)	relative viability (AZD5582 + AZD7762; first compound 0.01581 µM)	relative viability (AZD5582 + AZD7762; first compound 0.05 µM)	relative viability (Temozolomide + Alpelisib; first compound 0.2 µM)	relative viability (Temozolomide + Alpelisib; first compound 0.6325 µM)	relative viability (Temozolomide + Alpelisib; first compound 2 µM)	relative viability (Temozolomide + Alpelisib; first compound 6.325 µM)	relative viability (Temozolomide + Alpelisib; first compound 20 µM)
NCI-H2405	0.651	0.647	0.485	0.565	0.74	0.813	0.708	0.85	0.87	0.878	0.674	0.997	0.405	0.819	0.891	0.734	0.738
PC-14	0.643	1.06	0.703	0.74	0.521	0.595	0.558	0.6	0.255	0.247	0.294	0.183	1.08	0.958	0.95	0.867	0.217
NCI-H1975	0.688	0.956	0.829	0.9	0.643	0.858	0.742	0.809	0.709	0.932	0.667	0.902	0.711	0.712	0.718	0.642	0.676
LCLC-103H	0.465	0.486	0.375	0.37	0.377	0.409	0.455	0.315	0.745	0.725	0.613	0.41	0.819	0.976	1.09	0.999	0.927
NCI-H460	0.614	0.774	0.642	0.779	0.0814	0.495	0.509	0.521	0.516	0.628	0.562	0.639	0.58	0.526	0.51	0.479	0.461
LU99A	0.259	0.295	0.243	0.287	0.252	0.349	0.289	0.279	0.317	0.349	0.313	0.337	0.619	0.49	0.5	0.489	0.56
NCI-H23	0.403	0.45	0.245	0.21	0.304	0.278	0.328	0.347	0.163	0.172	0.177	0.227	0.645	0.73	0.552	0.764	0.734
NCI-H1944	0.369	0.428	0.412	0.446	0.226	0.25	0.266	0.297	0.316	0.523	0.475	0.581	0.654	0.808	0.946	0.786	0.624
NCI-H322M	0.508	0.713		0.562	0.499	0.579		0.523	0.53	0.598	0.504	0.6		0.81	0.803	0.747	0.609
EMC-BAC-2	0.295	0.341	0.323	0.273	0.271	0.269	0.288	0.187	1.07	1.06	0.996	1.04	0.743	0.731	0.743	0.75	0.691
NCI-H3122	0.912	0.891	1.02	0.147	0.157	0.178	0.477	0.121	0.899	0.988	1.01	0.306	0.75	0.776	0.795	0.73	0.663
HARA	0.414	0.544	0.362	0.307	0.0907	0.117	0.13	0.0952	0.204	0.261	0.315	0.225	0.72	0.945	0.81	0.773	0.666
NCI-H358	0.677	0.962	0.821	0.777	0.126	0.109	0.102	0.101	0.471	0.586	0.697	0.506	0.657	0.729	0.912	0.833	0.676
NCI-H2347	0.335	0.388	0.364	0.456	0.561	0.523	0.5	0.553	0.724	0.558	0.666	0.713	1.06	1.1	1.21	1.02	0.989
NCI-H1437	0.787	0.893	0.77	0.94	0.373	0.385	0.399	0.358	1.1	1.14	1.09	1.14	1.03	0.922	0.957	0.953	1.05
NCI-H647	0.599	0.704	0.463	0.75	0.269	0.347	0.255	0.357	0.324	0.394	0.336	0.447	1.43	1.21	1.16	0.866	0.238
NCI-H1395	0.7	0.734	0.583	0.767	0.703	0.714	0.81	0.797	0.346	0.376		0.406	1.15	1.07	1.13	1	1.06
NCI-H1915	0.559	0.64	0.475	0.627	0.379	0.452	0.447	0.42	0.657	0.672	0.673	0.495	1.05	1.02	0.905	0.625	0.335
